The values below come from article PMC7614683, “A small molecule PI3Kα activator for cardioprotection and neuroregeneration” (Nature, 2023).

For the experiment, the system named is PI3Kα-KO MEFs. Nature of the experiment: pAKT S473 western blot, PI3Kα-KO MEFs. The experiment is classed as cell-based, mouse. To be noted: 15 min. Here is the method: Unless otherwise indicated, western blotting was performed with ECL detection. For time course studies, A549 cells were seeded at 250,000 cells per well in 6-well plates in RPMI (10% FBS + 1 mM Na-Pyruvate + 1% P/S) and allowed to adhere overnight. The next day they were serum-starved for 4 h prior to treatment with 100 nM insulin or 5 μM 1938, for the indicated time (5 min to 48 h) at 37°C, 5% CO2. For 1938 titration assays in MEFs, cells were seeded at 150,000 cells per well in 6-well plates and allowed to adhere overnight. The next day they were serum-starved for 4 h prior to treatment with insulin (1 μM), 1938 (0.2 to 30 μM, final DMSO concentration of 1.5%) or inhibitors (final DMSO concentration of ≤1.5%) for 15 min at 37°C, 5% CO2. Cells were washed twice with cold PBS and lysed using cold RIPA buffer (25 mM Tris.HCl pH 7.6, 150 mM NaCl, 1% NP-40, 1% sodium deoxycholate, 0.1% SDS supplemented with protease/phosphatase inhibitor cocktail from Merck). To remove cell debris, homogenates were spun at 13,000 rpm for 15 min at 4°C and the supernatant fraction recovered. Protein concentration was determined by colorimetric assay (BCA assay, Promega). Protein extracts were resolved by SDS-PAGE, transferred to nitrocellulose membranes, and incubated overnight at 4°C with specific antibodies as follows: anti-vinculin (Sigma #V9131) and the following antibodies from Cell Signaling Technology (CST): pAKT-S473 (CST #9271), pS6-S240/244 (CST #2215), pPRAS40-T246 (CST #2640) and total S6 (CST #2317). Primary ntibodies were used at 1:1000 dilution except anti-vinculin (1:10000). Secondary antibodies are also from Cell Signalling Technology: Anti rabbit IgG, HRP linked Antibody (CST #7074S), Anti mouse IgG, HRP linked Antibody (CST #7076S). Raw and uncropped blots are shown in Supplementary Fig. 1.

For the molecule `CCN1CCN(c2ccc(Nc3cc(Nc4cccc5c4N(C(C)=O)CC5)ccn3)cc2)CC1` [Compound 1938], the “pAKT^S473 induction” value was “no pAKT^S473 signal”. As for “insulin: insulin, canonical activator of PI3Kα, used as positive control”, the entry is “still respond to insulin”.
